Where two headings read alike, the source gives them in different places.
Experiments:
[1] = biological target: Marinobacter sp. msLacBP6 variant V188C, SEQ ID NO: 39, Badan conjugate; assay: Fluorescence titration of conjugate; format: binding; conditions: read-out: trueKd (lactate); monochromatic, 513 nm
[2] = biological target: T1, Pseudomonas stuztzeri psLacBP11 variant W195C, SEQ ID NO: 45, Badan conjugate (Stutzerimonas nitrititolerans, UniProt A0ABX9V4I2, W224C); format: binding; design: key: nb: no binding
T1 construct: Badan on Cys195
T1 sequence (A0ABX9V4I2 entry or part of it W224C): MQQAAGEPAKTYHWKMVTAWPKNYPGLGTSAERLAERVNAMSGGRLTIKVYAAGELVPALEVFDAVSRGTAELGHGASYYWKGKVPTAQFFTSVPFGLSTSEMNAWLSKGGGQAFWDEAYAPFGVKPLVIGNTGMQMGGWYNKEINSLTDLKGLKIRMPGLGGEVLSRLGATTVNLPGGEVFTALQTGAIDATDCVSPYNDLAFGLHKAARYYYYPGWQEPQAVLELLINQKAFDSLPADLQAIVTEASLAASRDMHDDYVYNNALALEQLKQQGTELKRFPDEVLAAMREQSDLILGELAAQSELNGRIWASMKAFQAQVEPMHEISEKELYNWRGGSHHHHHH
Experimental: (§1) 12-, 24-, or 48-point logarithmic titration series were prepared on a Tecan Freedom liquid-handling robot, using an in-house program, ‘TitrationPlate’, that compiles an abstract description of a multi-component titration series into machine instructions for operating the robot. Temperature-dependent fluorescence emission intensities of 20 μL aliquots, each containing 10 μM protein, were measured in 384-well microtiter plates in a LightCycler 480 II (Roche) using excitation and emission wavelengths available for this instrument that most closely matched the optical characteristics of the fluorescent conjugate. Temperatures were advanced in 1K steps. At each temperature, data was collected at 1-second intervals for 60 seconds at which point the signal had relaxed to a steady value associated with the new temperature. […] The in-house program ‘TitrationMeltPlate’ was used to convert these observations into time-independent datasets that record fluorescence as a function of temperature for each well and associate wells with their concentration of titrant and additive. Management tools were developed to maintain a database of titrations and their analyses.
(§2) Ligand- and wavelength-dependent emission intensities were recorded on a Nanodrop3300 (Thermo Scientific) at room temperature. Using the LED closest to the optimal excitation wavelength of the fluorophore (UV, 365 nm; blue, 470 nm; ‘white’, 460-550 nm).
(§3) Monochromatic emission intensities Iλ (these intensities correspond to a bandpass intensity, recorded either with a physical filter in the case of the Roche LightCycler, or by integrating in the interval λ−δ, λ+δ in the case of an emission spectrum), were fit to Iλ=^apoβλ(1−ytrue)+^satβλytrue 1 where ^apoβλ and ^satβλ are the fluorescence baselines associated with the ligand-free and ligand-bound states of the protein, respectively, and ytrue the fractional saturation of the protein (Layton and Hellinga, 2010, Biochemistry, 49, 10831-41). Baseline functions can be constant, linear, or a second-order polynomial.

[3] = biological target: T2, Rhodobacter sphaeroides rsLacBP12 variant F191C, SEQ ID NO: 46, Badan conjugate (Cereibacter sphaeroides, UniProt Q3IWV8, F228C); format: binding; design: key: nb: no binding
T2 construct: Badan on Cys191
T2 sequence (Q3IWV8 entry or part of it F228C): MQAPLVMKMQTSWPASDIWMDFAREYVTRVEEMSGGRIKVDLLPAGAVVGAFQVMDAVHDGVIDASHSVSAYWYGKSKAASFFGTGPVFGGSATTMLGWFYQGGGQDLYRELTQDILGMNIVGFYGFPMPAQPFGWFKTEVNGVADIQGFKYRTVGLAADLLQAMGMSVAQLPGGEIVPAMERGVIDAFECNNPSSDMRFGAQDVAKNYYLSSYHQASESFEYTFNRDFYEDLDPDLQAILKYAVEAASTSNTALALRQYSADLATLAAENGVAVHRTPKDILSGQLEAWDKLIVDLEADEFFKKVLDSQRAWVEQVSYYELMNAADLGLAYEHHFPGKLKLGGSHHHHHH
Experimental: as §1, §2, §3

[4] = biological target: Marinobacter sp. msLacBP6 variant 187C, D220E, SEQ ID NO: 56, Acrylodan conjugate; assay: Fluorescence titration of conjugate (affinity tuning); format: binding; conditions: λ1 483, λ2 510 nm
[5] = biological target: T3, Polymorphum gilvum pgLacBP10, YP_004304976.1, SEQ ID NO: 10 (expressed form SEQ ID NO: 24) (Polymorphum gilvum, UniProt F2IY60); assay: Lactate binding by thermal stability shift; design: key to appKd (lactate) / trueKd (lactate): nb: no binding
T3 sequence (F2IY60 with tags, fused parts or gaps): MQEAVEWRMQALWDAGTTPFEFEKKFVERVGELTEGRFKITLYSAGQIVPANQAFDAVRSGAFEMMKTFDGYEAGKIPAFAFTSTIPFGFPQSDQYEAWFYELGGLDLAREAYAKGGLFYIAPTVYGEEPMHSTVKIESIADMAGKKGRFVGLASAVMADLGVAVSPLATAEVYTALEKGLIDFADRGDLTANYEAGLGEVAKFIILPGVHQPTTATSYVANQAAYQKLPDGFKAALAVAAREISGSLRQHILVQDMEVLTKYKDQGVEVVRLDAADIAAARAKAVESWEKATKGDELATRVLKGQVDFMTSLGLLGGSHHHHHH
Text: These experiments comprise four successive steps: • 1. Synthetic gene construction. The amino acid sequence of the homology leads are back translated into DNA sequences. These are optimized for directing heterologous cytoplasmic expression of the protein homologues in E. coli, using either the OrfOpt or OrfMorph programs. These programs predict mRNA sequences that direct high-level protein expression in E. coli. The predicted gene sequences are assembled de novo from synthetic oligonucleotides. • 2. Heterologous protein expression of the homologues in E. coli. Plasmids carrying the synthetic expression constructs (see above) were transformed into KRX competent cells (Promega). Protein production was induced in bacterial cultures of these cultures. • 3. Purification of successfully expressed protein using immobilized metal affinity chromatography. • 4.
The thermal stability of purified LacBP candidate proteins was determined by measuring the temperature-dependence of the fluorescence signal of an extrinsically added dye, SYPRO, using a Roche LightCycler (Layton and Hellinga, 2010, Biochemistry, 49, 10831-41). The total fluorescence intensity, S, is given by S=βFfF+βUfU 11 where fF and fU are the fractions of protein in the folded and unfolded states, respectively, and βF and βUthe fluorescence baselines of these two states. To get the fractions of the two states, we have
To obtain the temperature dependence of the binding reaction, the Kd values of all the individually determined isotherms were fit the Gibbs-Hemholtz equation (Layton and Hellinga, 2010, Biochemistry, 49, 10831-41): […]

[6] = biological target: Marinobacter sp. msLacBP6 variant G170C, SEQ ID NO: 36, Badan conjugate; assay: Fluorescence titration of conjugate; format: binding; conditions: read-out: trueKd (lactate); monochromatic, 520 nm
[7] = Roche LightCycler, SYPRO Orange

C[C@H](O)C(=O)O [lactate]
Kd [1]: 0.4 mM | appKd (lactate) [2]: nb | trueKd (lactate) [2]: nb | appKd (lactate) [3]: nb | trueKd (lactate) [3]: nb | Kd ([4]; read-out: appKd (lactate)): 5.1 mM | Kd ([4]; read-out: trueKd (lactate)): 4 mM | appKd (lactate) [5, 7]: nb^f | trueKd (lactate) [5, 7]: nb^f | Lactate Binding ([5]; thermostability vs ligand concentration, fluorescence response of labeled conjugate): weak^f,g | Kd [6]: 0.02 mM

— patent publication US11099176B2 (priority 2015, dated 2021)
